Values joined by “and” are separate entries in the source; they are usually repeats but may differ in a detail not shown here. Equal values may be shown once. Read-outs that look alike come from different tables or passages of the source. Marks after values point to notes of the source that are not given here.
Legend:
[1] = system: Ras-CVLS processing in COS monkey kidney cells; test: COS cell assay: Ras-CVLS processing (Western blot); type: cell-based; settings: COS cells, read-out: Inhibition of Ras Processing IC50
Outline: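 COS cells electroporated with Ras-CVLS (farnesyl transferase substrate) cDNA, with drug-containing fresh medium added at 24 h and cells examined at 48 h. TCA-precipitated cellular protein was resolved by SDS gel and immunoblotted with anti-p21 Ras monoclonal and HRP anti-rat IgG to monitor Ras processing.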

[2] = system: SW620 (human colon adenocarcinoma [lymph node metastasis]); test: In vivo anti-tumor study, SW620; design: species or system athymic nu/nu female mice; settings: SW620 tumor, po, 10/wk, x4; for inhibition in vivo at 100 mg/kg: Mus musculus, SW-620, po
Description: Tumor bearing animals are selected and randomized when the tumors are established. […] The percent inhibition of tumor growth relative to vehicle controls are determined by tumor measurements.

[3] = target: T1, farnesyl protein transferase (FPT), partially purified from rat brain (Rattus norvegicus, UniProt Q02293+Q04631); test: Inhibition of farnesyl protein transferase (transfer of [3H]farnesyl to Ras-CVLS); type: biochemical
T1 construct: were partially purified from rat brain by ammonium sulfate fractionation followed by Q-Sepharose
T1 sequence (Q02293 whole entry, one chain of several): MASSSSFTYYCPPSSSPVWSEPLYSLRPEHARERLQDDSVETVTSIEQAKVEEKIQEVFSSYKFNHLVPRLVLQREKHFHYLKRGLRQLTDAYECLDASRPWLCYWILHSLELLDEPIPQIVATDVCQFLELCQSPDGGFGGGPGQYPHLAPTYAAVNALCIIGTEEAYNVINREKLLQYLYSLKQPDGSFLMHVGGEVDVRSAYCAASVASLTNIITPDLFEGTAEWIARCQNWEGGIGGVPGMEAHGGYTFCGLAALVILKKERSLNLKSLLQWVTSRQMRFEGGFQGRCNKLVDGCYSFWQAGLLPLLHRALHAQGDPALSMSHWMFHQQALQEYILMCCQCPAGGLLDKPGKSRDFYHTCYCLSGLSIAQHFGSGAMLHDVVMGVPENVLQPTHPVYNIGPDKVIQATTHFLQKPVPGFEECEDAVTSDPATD
Outline: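 Transfer of [3H]farnesyl onto E. coli-expressed, His6-tagged Ras-CVLS was measured after 30 min at room temperature. Radiolabelled Ras was TCA-precipitated on ice and filter-harvested, and inhibition was expressed as percent of DMSO control.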

[4] = system: M27 (mouse Lewis lung carcinoma); test: In vivo anti-tumor study, M27; design: species or system athymic nu/nu female mice; settings: M27 tumor, 100 MPK, po, 10/wk
Excerpt: In vivo Anti-tumor Studies

[5] = system: Normal human HEPM fibroblasts; test: Cell Mat Assay: density of mat cells (mIC50); type: cell-based
Outline: (§1)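 Serial compound dilutions added 24 h after planting T24-BAG4 cells onto a mat of normal cells, then 14 d colony growth; monolayers glutaraldehyde-fixed and tumor cells X-Gal stained. tIC50 and mIC50 from microscope counts of colonies, cells per colony and mat cell density.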

[6] = system: T24-BAG4 human bladder carcinoma cells expressing an activated H-ras gene; test: Cell Mat Assay: tumor cell colony inhibition (tIC50); type: cell-based; settings: inhibition of tumor cell growth
Outline: as §1

[7] = target: T2, geranylgeranyl protein transferase (GGPT) I (Rattus norvegicus, UniProt P53610+Q04631); test: Inhibition of geranylgeranyl protein transferase I (Ras-CVLL as acceptor); type: biochemical; settings: enzyme inhibition
T2 construct: were partially purified from rat brain by ammonium sulfate fractionation followed by Q-Sepharose
T2 sequence (P53610 whole entry, one chain of several): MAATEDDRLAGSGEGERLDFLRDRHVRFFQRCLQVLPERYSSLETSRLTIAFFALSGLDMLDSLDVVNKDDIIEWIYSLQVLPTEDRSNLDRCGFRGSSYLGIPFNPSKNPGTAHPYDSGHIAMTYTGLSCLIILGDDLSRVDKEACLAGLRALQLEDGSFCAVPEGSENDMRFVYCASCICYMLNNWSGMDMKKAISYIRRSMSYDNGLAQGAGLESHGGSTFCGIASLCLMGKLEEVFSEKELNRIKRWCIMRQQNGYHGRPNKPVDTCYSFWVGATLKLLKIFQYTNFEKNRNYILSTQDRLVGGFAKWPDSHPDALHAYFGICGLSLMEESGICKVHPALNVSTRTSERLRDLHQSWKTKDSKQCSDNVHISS
Excerpt: 1. In vitro enzyme assays: Inhibition of farnesyl protein transferase and geranylgeranyl protein transferase.
Both farnesyl protein transferase (FPT) and geranylgeranyl protein transferase (GGPT) I were partially purified from rat brain by ammonium sulfate fractionation followed by Q-Sepharose (Pharmacia, Inc.) anion exchange chromatography essentially as described by Yokoyama et al (Yokoyama, K., et al., (1991), A protein geranylgeranyltransferase from bovine brain: Implications for protein prenylation specificity, Proc. Natl. Acad. Sci USA 88: 5302-5306, the disclosure of which is incorporated herein by reference thereto). Human farnesyl protein transferase was also expressed in E. coli, using cDNA clones encoding both the α and β subunits. The methods used were similar to those published (Omer, C. et al., (1993), Characterization of recombinant human farnesyl protein transferase: Cloning, expression, farnesyl diphosphate binding, and functional homology with yeast prenyl-protein transferases, Biochemistry 32:5167-5176). Human farnesyl protein transferase was partially-purified from the soluble protein fraction of E. coli as described above. […] Two forms of val^12-Ha-Ras protein were prepared as substrates for these enzymes, differing in their carboxy terminal sequence. One form terminated in cysteine-valine-leucine-serine (Ras-CVLS) the other in cystein-valine-leucine-leucine (Ras-CVLL). Ras-CVLS is a substrate for the farnesyl protein transferase while Ras-CVLL is a substrate for geranylgeranyl protein transferase I. The cDNAs encoding these proteins were constructed so that the proteins contain an amino-terminal extension of 6 histidine residues. Both proteins were expressed in Escherichia coli and purified using metal chelate affinity chromatography. The radiolabelled isoprenyl pyrophosphate substrates, [^3H]farnesyl pyrophosphate and [3H]geranylgeranyl pyrophosphate, were purchased from DuPont/New England Nuclear.
The geranylgeranyl protein transferase I assay was essentially identical to the farnesyl protein transferase assay described above, with two exceptions: [^3H]geranylgeranylpyrophosphate replaced farnesyl pyrophosphate as the isoprenoid donor and Ras-CVLL was the protein acceptor.

[8] = Ras-CVLS farnesylation, partially purified rat brain FPT, read-out: FPT IC50
[9] = enzyme inhibition, read-out: FPT IC50

| IC50 [3, 8] | IC50 ([6]; Homo sapiens) | melting point | Structure (SMILES) | IC50 ([1]; Primates, COS) | IC50 ([5]; Homo sapiens, Fibroblast) | further results |
| --- | --- | --- | --- | --- | --- | --- |
| 0.6 µM | 25 µM | 93.3 to 94.6 °C | O=C(Cc1ccc(Br)cc1)N1CCC(=C2c3ccc(Cl)cc3CCc3cccnc32)CC1 [Example 43] | 9.7 µM | 50 µM | – |
| 0.76 µM | – | 120 to 122 °C | O=C(Cc1cccnc1)N1CCC(=C2c3ccc(Cl)cc3CCc3c(On4nnc5ccccc54)ccnc32)CC1 [Example 251] | 8.1 µM | – | – |
| – | 18 µM | 133.2 to 133.4 °C | Nc1cnc2c(c1)CCc1cc(Cl)ccc1C2=C1CCN(C(=O)Cc2ccncc2)CC1 [Example 402] | > 10 µM | > 25 µM | IC50 ([3]; FPT IC50, enzyme inhibition): 1 µM |
| 1.3 µM | 12.5 µM | 82.7 to 83.8 °C | CCC(C(=O)N1CCC(=C2c3ccc(Cl)cc3CCc3cccnc32)CC1)c1ccccc1 (stereo not shown) [Example 48] | 10.7 µM | 25 µM | – |
| 1.7 µM | – | 200 °C | O=C1CCC(C(=O)N2CCC(=C3c4ccc(Cl)cc4CCc4cccnc43)CC2)CC1 [Example 5] | 9.2 µM | > 50 µM | IC50 [7]: > 46 µM; IC50 [1]: > 12 µM; IC50 [3, 9]: 1.7 µM; IC50 [5]: 100 µM |
| 0.6 µM | 50 µM | 114.2 to 115.8 °C | O=C(C(c1ccccc1)c1ccccc1)N1CCC(=C2c3ccc(Cl)cc3CCc3cccnc32)CC1 [Example 42] | 5.8 µM | > 50 µM | – |
| 0.8 µM | 25 µM | 112 to 114.6 °C | O=C(Cc1ccccc1)N1CCC(=C2c3ccc(Cl)cc3CCc3cccnc32)CC1 [Example 44] | 11.6 µM | 25 µM | – |
| 2 µM | 12.5 µM | 122 to 125 °C | O=C(Cc1ccccn1)N1CCC(=C2c3ccc(Cl)cc3CCc3cccnc32)CC1 [Example 6] | 10 µM | 50 µM | – |
| – | > 50 µM | 85 to 85.6 °C | O=C(Cc1cc[n+]([O-])cc1)N1CCC(C2c3ccc(Cl)cc3CCc3ccc[n+]([O-])c32)CC1 (stereo not shown) [Example 238] | – | > 50 µM | inhibition at 4 µM ([3]; at 4 μM): 26% |
| 3.57 µM | 12.5 µM | 61.8 to 62.3 °C | O=C(Cc1cccnc1)N1CCC(C2c3ccc(Cl)cc3CCc3ccc[n+]([O-])c32)CC1 (stereo not shown) [Example 235] | 9.1 µM | > 50 µM | – |
| 0.95 µM | – | – | O=C(Nc1ccccn1)N1CCN(C2c3ccc(Cl)cc3CCc3cccnc32)CC1 (stereo not shown) [187 (6.8)] | – | – | IC50 [7]: > 46 µM; IC50 [1]: 1.3 µM; Average % Tumor Inhibition ([2]; 100 MPK, listed as Ex. 187 (6.8), 100 mg/kg): 11% and 21%; IC50 [5]: > 50 µM and 50 µM |
| – | – | 81.7 to 82 °C | O=C(Cc1cccnc1)N1CCC(C2c3ccc(Cl)cc3CCc3cccnc32)CC1 (stereo not shown) [Example 82A, 4-(8-Chloro-6,11-dihydro-5H-benzo-[5,6]cyclohepta(1,2-b]pyridin-11-yl)-1-[(3-pyridinyl)acetyl]-piperidine] | – | – | inhibition in vivo at 100 mg/kg ([2]; 100 MPK): 27% |
| 1.48 µM | 4 µM | 116.7 to 117.6 °C | O=C(Cc1ccncc1)N1CCC(C2c3ccc(Cl)cc3CCc3ccc[n+]([O-])c32)CC1 (stereo not shown) [Example 236] | 3.5 µM | > 50 µM | IC50 [7]: > 45 µM |
| 3.5 µM and 2.7 µM | 6.3 µM | – | O=C(Cc1ccc(O)c(O)c1)N1CCC(=C2c3ccc(Cl)cc3CCc3cccnc32)CC1 [Example 127] | – | > 50 µM | inhibition in vivo at 100 mg/kg ([2]; 100 MPK): 25%; Average % Tumor Inhibition ([4]; x3): 22% |
| 1 µM and 0.8 µM | – | – | CN1C(=O)CC[C@H](C(=O)N2CCC(=C3c4ccc(Cl)cc4CCc4cccnc43)CC2)[C@H]1c1ccc(F)cc1 [Example 4] | – | – | inhibition in vivo at 100 mg/kg ([2]; 100 MPK): 2% |
| 3.7 µM | – | 142 °C (dec.) | Cn1cc(Br)c(=O)c2c1C(=C1CCN(C(=O)Cc3ccncc3)CC1)c1ccc(Cl)cc1CC2 [Example 416] | – | – | – |
| 2.49 µM | – | 282 to 285 °C | O=C(Cc1ccccc1[N+](=O)[O-])C(=O)N1CCC(=C2c3ccc(Cl)cc3CCc3cccnc32)CC1 [Example 220] | – | – | – |
| 0.16 µM | – | 92 to 93 °C | O=C(Cc1cccnc1)N1CCC(=C2c3ccc(Cl)cc3CCc3cc(Br)cnc32)CC1 [Example 247] | > 3.9 µM | > 50 µM | IC50 [7]: > 40 µM; IC50 ([1]; listed as 247 (5.122)): 3.5 µM |
| – | – | 150 °C (dec.) | O=C(Cc1ccncc1)N1CCC(=C2c3ccc(Cl)cc3CCc3cc(Br)c(O)nc32)CC1 [Example 415] | – | – | IC50 [3, 9]: > 3.8 µM |
| 4.7 µM | – | 176 to 178 °C | O=C(c1ccncc1)N1CCC(=C2c3ccc(Cl)cc3CCc3cccnc32)CC1 [Example 15] | – | – | – |
| 17 µM | – | 118 to 120 °C | O=C(NCc1ccccc1)c1ccc2c(c1)CCc1cccnc1C2=C1CCN(C(=O)Cc2ccncc2)CC1 [Example 436] | – | – | – |
| 0.95 µM | 18 µM | 59.8 to 63.5 °C | O=C(Cc1cccnc1)N1CCC(=C2c3ccc(Cl)cc3CCc3c(Cl)ccnc32)CC1 [Example 250] | 8.6 µM | > 50 µM | – |
| – | > 6.25 µM | 105 °C (dec.) | CN1CCC(CC(=O)N2CCC(=C3c4ccc(Cl)cc4CCc4c3ncc(Br)c4Cl)CC2)CC1 [Example 413] | 1.5 µM | 10 µM | IC50 [7]: > 35 µM; IC50 [3, 9]: 0.103 µM |
| 1.2 µM and 0.87 µM | 6.3 µM | 94.3 to 95.5 °C | O=C(Cc1cccc([N+](=O)[O-])c1)N1CCC(=C2c3ccc(Cl)cc3CCc3cccnc32)CC1 [Example 45] | 4.2 µM | > 50 µM | Average % Tumor Inhibition ([4]; x3): 0% |
| 2.8 µM | – | 67.2 to 69.8 °C | CCc1cc2c(cc1Cl)C=Cc1cccnc1C2C1CCN(C(=O)Cc2cccnc2)CC1 (stereo not shown) [Example 270] | – | – | – |

| Structure (SMILES) | IC50 [3, 8] | IC50 ([6]; Homo sapiens) | melting point | IC50 ([1]; Primates, COS) | IC50 ([5]; Homo sapiens, Fibroblast) | further results |
| --- | --- | --- | --- | --- | --- | --- |
| S=C(c1ccncc1)N1CCC(=C2c3ccc(Cl)cc3CCc3cccnc32)CC1 [Example 88] | 1 µM | – | – | – | – | IC50 [1]: > 12 µM; Average % Tumor Inhibition ([2]; 25 MPK, listed as Ex. 88, 25 mg/kg): 4% and 0%; Average % Tumor Inhibition ([2]; 50 MPK): 30%; Average % Tumor Inhibition ([2]; 100 MPK, listed as Ex. 88, 100 mg/kg): 43.25* % and 38% and 37% and 27.4* % and 28%; Average % Tumor Inhibition ([4]; x4): 19%; IC50 [5]: > 50 µM |
| CC(=O)N1CCC(C(=O)N2CCN(C3c4ccc(Cl)cc4CCc4cccnc43)CC2)CC1 (stereo not shown) [Example 192] | 1.24 µM | 25 µM | – | 4.9 µM | > 50 µM | IC50 ([6]; listed as 192 (5.65)): 37 µM; IC50 [7]: > 43 µM; inhibition in vivo at 100 mg/kg ([2]; 100 MPK): 29% |
| Cc1ccc(CC(=O)N2CCC(=C3c4ccc(Cl)cc4CCc4cccnc43)CC2)cc1 [Example 47] | 1.3 µM and 1.01 µM | – | – | – | – | IC50 [6]: 12.5 µM; IC50 [1]: 11.1 µM; Average % Tumor Inhibition ([4]; x3): 19%; IC50 [5]: > 50 µM |

Reference: patent US20030055065A1, “Tricyclic amide and urea compounds useful for inhibition of G-protein function and for treatment of proliferative diseases” (priority 1993, published 2003)
